According to patent US20220390458A1, “FLUORESCENT PROBE AND APPLICATIONS THEREOF” (CENTRE NATIONAL DE LA RECHERCHE SCIENTIFIQUE (CNRS), priority 2019, published 2022):

Tests used:
[1] = Probe fluorescence in organic solvents of increasing polarity; type: physicochemical; conditions: 25° C., 2.6 μM probes
Description: Fluorescence measurements were performed with a Hitachi F4500 fluorometer. Excitation and emission slits were fixed at 5 nm and spectra were recorded at 25° C. using a 1 cm path length thermostated quartz micro-cuvette. 0.26 mM solutions of the probes were prepared in a dichloromethane: methanol mixture (3:1 volume ratio). Measurements were performed with […] probes diluted in the different solvents (see Table 1). The initial solvent of the stock solution thus represents 1% of the final volume.

[2] = carboxylic group; cited from earlier work
[3] = literature; cited from earlier work
[4] = Probe fluorescence in DMPC liposomes as a function of temperature (5 to 65° C.); type: physicochemical; conditions: for maximum emission wavelength, liquid crystalline phase: above phase transition temperature; for maximum emission wavelength, liquid crystalline phase / maximum emission wavelength, gel phase: excitation 385 nm; for maximum emission wavelength, gel phase: below phase transition temperature
Description: Liposomes were prepared in PBS buffer using a classical freeze/though protocol. In brief, lipids dissolved in chloroform were dried under vacuum. The lipid film formed was rehydrated with the PBS solution and agitated until the complete suspension of the lipid film. The vesicle solution was then submitted to 6 freeze/thaw (5 min in liquid nitrogen/10 min in 37° C. water bath) cycles and then extruded 19 times sequentially trough 400 nm and 200 nm polycarbonate membranes (Avanti Polar Lipids Liposome Extruder). The 200 nm liposome suspension was stored at 4° C.
Fluorescence data was obtained using a Hitachi F4500 fluorometer. Emission spectra were recorded between 420 and 600 nm with an excitation wavelength fixed at 385 nm and 5 nm excitation and emission slits. Ethanol solutions of fluorescent probes were prepared and added to liposomes at a 1:400 (probe: phospholipid) molar ratio. Liposomes were used at a 40 μg.mL^−1 final concentration. Measurements were done at 21° C. for all liposome compositions indicated in Table 2, except for DMPC where a range of temperature from 5 to 65° C. was also applied.
The spectral shift described above was quantified by calculation of the Generalized Polarization (GP) parameter. This parameter provides a quantitative index of membrane fluidity and is calculated as the difference between fluorescence emission intensity at a 440 nm (lipids with gel properties) and the intensity at 490 nm (wavelength evidenced in lipids with liquid crystal properties), divided by the sum of these two intensities. The GP parameter was thus calculated from fluorescence emission intensities according to the following formula: […]
where Igel and Ilc are, respectively, intensities of fluorescence at wavelengths characteristic of probe emission, respectively in gel and liquid crystal lipid phases.

[5] = Determination of nanoemulsion (NE) fluidity with DIOLL probe; type: physicochemical
[6] = cited from earlier work
[7] = Probe fluorescence intensity in POPC liposomes; type: physicochemical; conditions: 25° C., final concentration 0.2 μM
[8] = DIOLL probe fluorescence-based liposome quantification; conditions: POPC liposomes; 21° C.; excitation 390 nm
Description: A POPC solution of known concentration (100 μg.ml^−1) was used as standard. Increasing volumes of the standard solution were diluted with buffer in a 96 well plate (Nunc). The final volume per well was 200 μl and lipid concentrations between 0 and 80 μg.ml^−1 were used. Samples were prepared in parallel to a final volume of 200 μl per well.
A constant volume of DIOLL solution in ethanol (5 μl) was added in each well to obtain a final DIOLL concentration of 2 μM. The volume of ethanol added represented 2.5% of the final volume and had no effect on liposome integrity. The plate was incubated at room temperature for 10 min. Fluorescence emission spectra were recorded between 420 nm and 600 nm for an excitation wavelength of 390 nm with a TECAN InfiniteM200 plate reader. Spectra were recorded at 21° C.
The surface under the spectrum was calculated for each condition using an Excel complementary function, IntegralP (www.fordom.free.fr) which allows one to calculate the integral of a function when discrete data sets are available. Maximum fluorescence intensities or surfaces under the curve were plotted as a function of the lipid concentration to obtain the standard curve. […]
To conclude upon the repeatability of the method, the coefficient of variation (CV) was calculated as the percentage of the standard deviation on the mean of 5 independent measurements. […]

[9] = DIOLL fluorescence in DMPC liposomes (plate reader, quantification method); type: physicochemical; conditions: 21° C., excitation 390 nm
Description: (§1) Liposomes were prepared using a classical freeze/thaw protocol. Briefly, the appropriate lipid mixture solubilized in chloroform was dried under vacuum, then solubilized with 1 ml buffer under strong agitation. Assays were done either in HEPES 20 mM pH 7.4 buffer 100 mM NaCl or in PBS. The liposome emulsion obtained was submitted to 6 freeze/thaw cycles (5 min in liquid nitrogen/10 min in a water bath at 37° C., 1 minute strong agitation) to decrease the number of bilayers and obtain unilamellar vesicles. To obtain homogenous vesicles, the liposome solution was extruded successively through a 400 nm and 100 nm polycarbonate membrane using an extruder (Avanti Polar Lipids). Liposomes were routinely prepared at lipid concentrations between 1 and 10 mg.ml^−1 and subsequently diluted at the desired concentration. A constant volume of DIOLL solution in ethanol (5 μl) was added in each well to obtain a final DIOLL concentration of 2 μM. The volume of ethanol added represented 2.5% of the final volume and had no effect on liposome integrity. The plate was incubated at room temperature for 10 min. Fluorescence emission spectra were recorded between 420 nm and 600 nm for an excitation wavelength of 390 nm with a TECAN InfiniteM200 plate reader. Spectra were recorded at 21° C.

[10] = DIOLL fluorescence in DPPC liposomes (plate reader, quantification method); type: physicochemical; conditions: 21° C., excitation 390 nm
Description: as §1

[11] = system: influenza virus membranes; assay: Labeling of viral membranes and GP calculation; conditions: 21° C.; excitation 390 nm

SMILES	Maximum fluorescence intensity ([1]; Chloroform)	λ emission maximum ([1]; Chloroform)	Maximum fluorescence intensity ([1]; DMSO)	λ emission maximum ([1]; DMSO)	Maximum fluorescence intensity ([1]; Ethanol)	λ emission maximum ([1]; Ethanol)	Maximum fluorescence intensity ([1]; Toluene)	λ emission maximum ([1]; Toluene)	emission maximum, gel phase membranes [3]	emission maximum, liquid crystalline phase membranes [3]	gel over liquid crystalline ratio of fluorescence intensity [4]	inflexion point of first derivative of GP vs temperature [4]	maximum emission wavelength, liquid crystalline phase [4]	maximum emission wavelength, gel phase [4]	also measured
CCCCCCCCCCCC(=O)c1ccc2cc(N(C)CC(=O)O)ccc2c1 [C-Laurdan, 6-Dodecanoyl-2-[N-methyl-N-(carboxymethyl)amino] naphthalene]	3115 A. U.	432 nm	2428 A. U.	450 nm	1491 A. U.	485 nm	359 A. U.	416 nm	–	–	–	–	–	–	pKa [2]: 6.6
CCCCN(CCCC)c1ccc2cc(/C=C/c3cc[n+](CC(O)C[N+](C)(C)CCO)cc3)ccc2c1.[Br-].[Br-] (stereo not shown) [Di-4-ANEPPDHQ]	–	–	–	–	–	–	–	–	560 nm	610 nm	–	–	–	–	–
CCCCCCCCCCCC(=O)c1ccc2cc(N(C)C)ccc2c1 [Laurdan, 6-dodecanoyl-2-dimethylaminonaphthalene]	4441 A. U.	440 nm	5533 A. U.	460 nm	4221 A. U.	485 nm	3814 A. U.	423 nm	440 nm	490 nm	0.6	23 °C	around 490 nm	440 nm	fluorescence emission peak when incubated with NE solution ([5]; single peak): 440 nm; solubility in aqueous buffers [6]: low solubility in aqueous buffers
CCCCCCCCCCCC(=O)c1ccc2cc(N(C)CC(O)CO)ccc2c1 (stereo not shown) [DIOLL, 1-(6-((2,3-dihydroxypropyl)(methyl)amino)naphthalen-2-yl)dodecan-1-one]	5041 A. U.	424 nm	9384 A. U.	441 nm	7647 A. U.	486 nm	5041 A. U.	424 nm	–	–	0.8	23 °C	490 nm	440 nm	λ emission maximum ([1]; Chloroform, listed as DIOLL probe): 441 nm; λ emission maximum ([1]; DMSO, listed as DIOLL probe): 460 nm; λ emission maximum ([1]; Toluene, listed as DIOLL probe): 425 nm; fluorescence intensity, fold higher than that of Laurdan and C-Laurdan [7]: 7 fold; fluorescence intensity emission maximum [8]: 490 nm; maximum fluorescence emission [9]: 440 nm; maximum fluorescence emission [10]: 440 nm; fluorescence emission peak dissolved in MCT ([5]; 2.6 μM in MCT, single peak): 440 nm; fluorescence emission dissolved in water ([5]; 2.6 μM in water): no fluorescence emission was detected; maximum fluorescence intensity wavelength [11]: 440 nm
